Data from patent US20180230160A1, “2-AMINO-7A-PHENYL-3,4,4A,5,7,7A-HEXAHYDROFURO[3,4-B]PYRIDINES AS BACE1 INHIBITORS” (H. Lundbeck A/S, priority 2015, published 2018).
Like-named read-outs stand apart in the source and are kept apart here.

Key:
[1] = test system: Aβ40 peptide; assay: Assessment of Aβ peptide levels in rat brain and plasma following BACE1 inhibition (Aβ40 ELISA); format: in vivo; settings: 3 hours post dose, vs vehicle
Experimental: Assessment of Aβ Peptide Levels in Rat Brain and Plasma Following BACE1 Inhibition. Animals.
(§1) Young adult Male Sprague Dawley rats of approximately 250 g weight were purchased from Charles River and received 0-30 mg/kg of vehicle (10% HP betaCD+1M MeSO4, pH 2.5) or test compounds (dissolved in vehicle) only by oral gavage (p.o). The compounds are dosed at a volume of 5 ml/kg. Cohorts of 5-10 animals were established for each treatment condition.
(§2) At T=180 minutes after initial dosing the animals were stunned and decapitated with a guillotine. Trunk-blood was sampled in EDTA coated tubes after decapitation of the animal. The blood was centrifuged at 2200G at 4° C. for 15 minutes and the plasma was collected and frozen at −80° C. The blood was aliquoted for Aβ ELISA and DMPK analysis. Immediately following sacrifice, the brain was extracted and split into 2 halves. The right hemibrains were snap frozen on dry ice and stored at −80° C. The left half was dissected; with the front forebrain taken for Aβ ELISA and the remainder used for DMPK analysis. These samples were also snap frozen on dry ice and stored at −80° C. until use for analysis.
The cortex samples were thawed slightly on wet ice before they were homogenized with a small volume dispersing instrument (T10 basic ULTRA-TURRAX®) which was set at speed 5 for approximately 5-7 sec. The tissue was processed in a 10 times volume of the weight, for example 100 mg of tissue was homogenized in 1000 μL of Homogenization buffer. Homogenization buffer: 50 ml Milli Q water+50 nM NaCl+0.2% Diethylamin (DEA)+1 tablet of Complete Protease inhibitor cocktail+1 nM 4-(2-aminoethyl) benzenesulfonyl fluoride hydrochloride irreversible serine protease inhibitor (AEBSF).
After homogenization 450 μL aliquots of the samples are collected into a 1.5 ml Eppendorf tube and placed on wet ice, 0.5% NP-40 (50 ul) was added to all samples and then they were incubated on ice for 30 min. After which all samples were sonicated using an Ultrasonic homogenizer with 20 kHz homogeneous sound (SONOPLUS HD2070, Bandelin Electronic) 10 pulse set at 12-13% power to extract all the Aβ species. The samples were then centrifuged (Ole Dich 157 MPRF Micro centrifuge) at 20000G for 20 minutes at 4° C. After centrifugation 285 μL of the supernatant was pipetted into 600 μL microtubes tubes and neutralized with 15 μL of 1M Tris-HCL buffer.
WAKO 294-62501 Human/Rat Abeta amyloid (40) kit was used for all ELISA analyses. 30 μL plasma samples or 30 μL of the cortex supernatants generated as described above were placed in 600 μL microtubes tubes on wet ice. To this 30 μL of 8M urea (AppliChem A1049, 9025) was added to generate a 2-fold dilution. Both plasma and cortex supernatants were incubated on ice for 30 min. Standard rows were prepared from the standard peptide stock provided in the kit and standard diluent containing 1.6M urea (200 μL 8M urea+800 μL of standard diluent) and 0.8M urea (400 μL 8M Urea+3600 μL Standard diluent). A serial 2-fold dilution of Aβ40 from 100 pmol/ml to 0 pmol/L was prepared for the assay.
After incubation with urea, all samples were further diluted by addition of 5 times standard diluent from the Kit. This was done by adding 240 μL Standard Diluent to 60 μL sample/urea mixture, which was then mixed well. 100 μL of each diluted sample was pipetted into designated wells of the ELISA plate in duplicates. The plate was then covered and incubated overnight at 4° C. The following day, the ELISA kit was brought to room temperature before use. The incubated plate was washed 5 times with the 20× washing solution diluted in Milli Q water. 100 μL HRP-conjugate was applied to each well, and the plate was covered and incubates at 4° C. for 1 hr. The wash was repeated again for 5 times. 100 μL 3,3′,5,5′-Tetramethylbenzidine (TMB) solution was applied to each well and the plate was covered and incubated in the dark at room temperature for 30 minutes. […]

[2] = molecular target: human BACE1 (Homo sapiens, UniProt P56817); assay: BACE1 efficacy assay (FRET-based, commercial BACE1 kit); format: biochemical; design: purchased Life Technologies P2985; settings: 10 μM test compound
Chain of human BACE1 (P56817 46-501): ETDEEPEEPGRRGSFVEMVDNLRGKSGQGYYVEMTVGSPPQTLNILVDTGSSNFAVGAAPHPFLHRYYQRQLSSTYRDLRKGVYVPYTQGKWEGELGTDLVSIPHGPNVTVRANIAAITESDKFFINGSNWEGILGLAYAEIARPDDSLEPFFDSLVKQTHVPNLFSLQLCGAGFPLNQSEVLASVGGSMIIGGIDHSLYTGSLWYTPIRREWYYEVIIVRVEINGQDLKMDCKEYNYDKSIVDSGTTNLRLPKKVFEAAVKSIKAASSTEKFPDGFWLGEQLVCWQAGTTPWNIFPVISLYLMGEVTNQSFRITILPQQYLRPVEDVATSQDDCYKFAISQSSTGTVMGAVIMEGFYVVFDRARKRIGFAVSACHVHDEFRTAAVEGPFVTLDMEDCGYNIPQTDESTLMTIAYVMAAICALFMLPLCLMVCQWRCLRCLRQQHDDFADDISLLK
Experimental: The efficacy assay was performed as a FRET-based assay using a commercially available BACE1 kit (Life Technologies, P2985). 2 μl test compound at 10 μM (final concentration) and 15 μl BACE1 enzyme from the kit (final concentration 3 nM) were preincubated for 15 minutes at room temperature before addition of 15 μl of substrate from the kit (250 nM final concentration) and incubated for additional 90 minutes at room temperature. The assay plate was subsequently read in a Pherastar (Ex540/Em590). The enzyme activity observed in presence of test compound were normalized to the enzyme activity observed in presence of buffer and 10 μM (final concentration) of the high affinity BACE1 reference inhibitor (S)-6-[3-Chloro-5-(5-prop-1-ynyl-pyridin-3-yl)-thiophen-2-yl]-2-imino-3,6-dimethyl-tetrahydropyrimidin-4-one, respectively. The efficacy of the test compounds was evaluated at 10 μM (final concentration) and defined as the percent inhibition of the enzyme activity using the equation % inhibition=100%−normalized enzyme activity in percent.

[3] = test system: P-gp (MDR1); assay: MDCK-MDR1 assay (permeability, efflux ratio); format: in vitro ADME; settings: dog, Papp BA/Papp AB, 60-minute incubation
[4] = Compound exposure in rat brain and plasma after oral dosing (DMPK analysis); format: in vivo; settings: male, Sprague Dawley, 3 hours post dose; for concentration at 3 h: read-out: Exp (exposure); for Kp at 3 h: brain/plasma, read-out: Brain/Plasma ratio
Experimental: as §1, §2
The results of the administration of representative Compounds of Examples 1, 2, 5, […], of brain and plasma samples collected at 3 hours post dose and then following exposures, as described above, are tabulated below.

In the case of `COc1cnc(C(=O)Nc2ccc(F)c([C@]34COC[C@@]3(F)C[C@@](C)(F)C(N)=N4)c2)cn1` [Example 7, N-(3-((3R,4aR,7aS)-2-amino-3,4a-difluoro-3-methyl-3,4,4a,5,7,7a-hexahydrofuro[3,4-b]pyridin-7a-yl)-4-fluorophenyl)-5-methoxypyrazine-2-carboxamide], the Aβ40 reduction ([1]; Brain, 10 mg/kg p.o.) is reported as 48%, the Aβ40 reduction ([1]; Brain, 30 mg/kg p.o.) is reported as 64% and the Aβ40 reduction ([1]; Plasma, 10 mg/kg p.o.) is reported as 42%. For the same compound, the Aβ40 reduction ([1]; Plasma, 30 mg/kg p.o.) was 50%, the inhibition at 10 µM [2] was 104% and the efflux ratio at 60 min, 0.5 μM [3] was 0.94. It also gave a concentration at 3 h ([4]; Brain, 10 mg/kg p.o.) of 93 ng/g, a concentration at 3 h ([4]; Brain, 30 mg/kg p.o.) of 479 ng/g and a concentration at 3 h ([4]; Plasma, 10 mg/kg p.o.) of 88 ng/g. For the same compound, the concentration at 3 h ([4]; Plasma, 30 mg/kg p.o.) was 239 ng/g, the Kp at 3 h ([4]; 10 mg/kg p.o.) was 1.05 and the Kp at 3 h ([4]; 30 mg/kg p.o.) was 2.01.
`[2H]C([2H])([2H])Oc1ccc(C(=O)Nc2ccc(F)c([C@]34COC[C@H]3C[C@@](F)(CF)C(N)=N4)c2)nc1` [Example 22, N-(3-((3S,4aS,7aS)-2-amino-3-fluoro-3-(fluoromethyl)-3,4,4a,5-tetrahydrofuro[3,4-b]pyridin-7a-yl)-4-fluorophenyl)-5-(methoxy-d3)picolinamide] showed an Aβ40 reduction ([1]; Brain, 10 mg/kg p.o.) of 23%, an Aβ40 reduction ([1]; Brain, 30 mg/kg p.o.) of 48% and an Aβ40 reduction ([1]; Plasma, 10 mg/kg p.o.) of 33%. For the same compound, the Aβ40 reduction ([1]; Plasma, 30 mg/kg p.o.) was 43%, the inhibition at 10 µM [2] was 99% and the efflux ratio at 60 min, 0.5 μM [3] was 1.85. The concentration at 3 h ([4]; Brain, 10 mg/kg p.o.) was 153 ng/g, the concentration at 3 h ([4]; Brain, 30 mg/kg p.o.) was 776 ng/g and the concentration at 3 h ([4]; Plasma, 10 mg/kg p.o.) was 399 ng/g. The concentration at 3 h ([4]; Plasma, 30 mg/kg p.o.) was 1830 ng/g, the Kp at 3 h ([4]; 10 mg/kg p.o.) was 0.38 and the Kp at 3 h ([4]; 30 mg/kg p.o.) was 0.42.
